# Laboratory results: patent publication USRE48335E1, “Polymyxin derivatives as antimicrobial compounds” (priority 2014, dated 2020)
# Positions of bridges follow the written chain, without caps; N, C: chain ends. Non-standard residues stand in square brackets, D forms with d. Residues, ends and D or L forms follow the SMILES beside them. *: point of attachment. Benzoyl(3-CF3) = O=C(c1cccc(C(F)(F)F)c1)*; Benzoyl(4-Ph) = O=C(c1ccc(-c2ccccc2)cc1)*; Decanoyl = CCCCCCCCCC(=O)*; X29 = Cc1cc(C)cc(C(=O)*)c1; Heptanoyl = CCCCCCC(=O)*; Octanoyl = CCCCCCCC(=O)*; Orn = NCCC[C@H](N)C(=O)O; Dab = NCC[C@H](N)C(=O)O; X39 = O=C(Cc1ccccc1Cl)*; Abu = CC[C@H](N)C(=O)O; Dap = NC[C@H](N)C(=O)O; X35 = O=C(Cc1ccccc1F)*
# Legend:
# Pseudomonas aeruginosa = tested on: Pseudomonas aeruginosa
# Summary of the method: (§1)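 Lipopeptides, as trifluoroacetate salts, tested for MIC in CAMHB by CLSI broth microdilution, with polymyxin B (sulphate) as comparator.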
# Enterobacter cloacae = tested on: Enterobacter cloacae
# Summary of the method: as §1
# Acinetobacter baumannii = tested on: Acinetobacter baumannii
# Summary of the method: as §1
Structure (SMILES),"Minimum inhibitory concentration (MIC), Pa ATCC 27853 (Pseudomonas aeruginosa) [µg/mL]","Minimum inhibitory concentration (MIC), Pa FADDI-PA022 (Pseudomonas aeruginosa) [µg/mL]","Minimum inhibitory concentration (MIC), Pa FADDI-PA025 (Pseudomonas aeruginosa) [µg/mL]","Minimum inhibitory concentration (MIC), Ec FADDI-EC001 (Enterobacter cloacae) [µg/mL]","Minimum inhibitory concentration (MIC), Ec FADDI-EC003 (Enterobacter cloacae) [µg/mL]","Minimum inhibitory concentration (MIC), Ec FADDI-EC006 (Enterobacter cloacae) [µg/mL]","Minimum inhibitory concentration (MIC), Ab ATCC 17978 (Acinetobacter baumannii) [µg/mL]","Minimum inhibitory concentration (MIC), Ab ATCC 19606 (Acinetobacter baumannii) [µg/mL]","Minimum inhibitory concentration (MIC), Ab FADDI-AB034 (Acinetobacter baumannii) [µg/mL]","Minimum inhibitory concentration, Pa ATCC 27853 (Pseudomonas aeruginosa) [µg/mL]","Minimum inhibitory concentration, Pa FADDI-PA022 (Pseudomonas aeruginosa) [µg/mL]","Minimum inhibitory concentration, Pa FADDI-PA025 (Pseudomonas aeruginosa) [µg/mL]","Minimum inhibitory concentration, Ec FADDI-EC001 (Enterobacter cloacae) [µg/mL]","Minimum inhibitory concentration, Ec FADDI-EC003 (Enterobacter cloacae) [µg/mL]","Minimum inhibitory concentration, Ec FADDI-EC006 (Enterobacter cloacae) [µg/mL]","Minimum inhibitory concentration, Ab A ATCC 17978 (Acinetobacter baumannii) [µg/mL]","Minimum inhibitory concentration, Ab ATCC 19606 (Acinetobacter baumannii) [µg/mL]","Minimum inhibitory concentration, Ab FADDI-AB034 (Acinetobacter baumannii) [µg/mL]"
CC[C@@H]1NC(=O)[C@@H](CC(C)C)NC(=O)[C@H](CCN)NC(=O)[C@@H](NC(=O)[C@H](CN)NC(=O)[C@@H](NC(=O)[C@H](CCCN)NC(=O)c2cccc(C(F)(F)F)c2)[C@@H](C)O)CCNC(=O)[C@H]([C@@H](C)O)NC(=O)[C@H](CCN)NC(=O)[C@H](CCN)NC1=O [Compound 141] ({Benzoyl(3-CF3)}-[Orn]T[Dap][Dab][Dab][dL][Abu][Dab][Dab]T; lactam 4-C),1,1,2,2,1,4,4,16,4,,,,,,,,,
CCCCCCC(=O)N[C@@H](CCN)C(=O)N[C@H](C(=O)N[C@@H](CN)C(=O)N[C@H]1CCNC(=O)[C@H]([C@@H](C)O)NC(=O)[C@H](CCN)NC(=O)[C@H](CCN)NC(=O)[C@H](C)NC(=O)[C@@H](CC(C)C)NC(=O)[C@H](CCN)NC1=O)[C@@H](C)O [Compound 63] (Heptanoyl-[Dab]T[Dap][Dab][Dab][dL]A[Dab][Dab]T; lactam 4-C),,,,,,,,,,0.5,2,>32,0.5,<0.125,0.5,1,2,1
CCCCCCCC(=O)N[C@@H](CCCN)C(=O)N[C@H](C(=O)N[C@H](CO)C(=O)N[C@H]1CCNC(=O)[C@H]([C@@H](C)O)NC(=O)[C@H](CCN)NC(=O)[C@H](CCN)NC(=O)[C@H]([C@@H](C)O)NC(=O)[C@@H](CC(C)C)NC(=O)[C@H](CCN)NC1=O)[C@@H](C)O [Compound 14] (Octanoyl-[Orn]T[dS][Dab][Dab][dL]T[Dab][Dab]T; lactam 4-C),,,,,,,,,,>32,8,>32,0.25,0.5,4,8,16,4
CCCCCCCCCC(=O)N[C@@H](CCN)C(=O)N[C@H](C(=O)N[C@@H](CN)C(=O)N[C@H]1CCNC(=O)[C@H]([C@@H](C)O)NC(=O)[C@H](CCN)NC(=O)[C@H](CCN)NC(=O)[C@H](C)NC(=O)[C@@H](CC(C)C)NC(=O)[C@H](CCN)NC1=O)[C@@H](C)O [Compound 38] (Decanoyl-[Dab]T[Dap][Dab][Dab][dL]A[Dab][Dab]T; lactam 4-C),,,,,,,,,,1,2,2,0.5,0.5,1,0.5,0.5,1
CC[C@@H]1NC(=O)[C@@H](CC(C)C)NC(=O)[C@H](CCN)NC(=O)[C@@H](NC(=O)[C@H](CN)NC(=O)[C@@H](NC(=O)[C@H](CCN)NC(=O)Cc2ccccc2F)[C@@H](C)O)CCNC(=O)[C@H]([C@@H](C)O)NC(=O)[C@H](CCN)NC(=O)[C@H](CCN)NC1=O [Compound 85] (X35-[Dab]T[Dap][Dab][Dab][dL][Abu][Dab][Dab]T; lactam 4-C),,,,,,,,,,0.5,2,2,0.5,1,1,2,4,2
CC(C)C[C@H]1NC(=O)[C@H](CCN)NC(=O)[C@@H](NC(=O)[C@@H](CO)NC(=O)[C@@H](NC(=O)[C@H](CCN)NC(=O)c2ccc(-c3ccccc3)cc2)[C@@H](C)O)CCNC(=O)[C@H]([C@@H](C)O)NC(=O)[C@H](CCN)NC(=O)[C@H](CCN)NC(=O)[C@H]([C@@H](C)O)NC1=O [Compound 11] ({Benzoyl(4-Ph)}-[Dab]T[dS][Dab][Dab][dL]T[Dab][Dab]T; lactam 4-C),,,,,,,,,,4,4,32,0.5,0.5,0.5,0.5,2,1
CC[C@@H]1NC(=O)[C@@H](CC(C)C)NC(=O)[C@H](CCN)NC(=O)[C@@H](NC(=O)[C@H](CN)NC(=O)[C@@H](NC(=O)[C@H](CCN)NC(=O)c2cc(C)cc(C)c2)[C@@H](C)O)CCNC(=O)[C@H]([C@@H](C)O)NC(=O)[C@H](CCN)NC(=O)[C@H](CCN)NC1=O [Compound 93] (X29-[Dab]T[Dap][Dab][Dab][dL][Abu][Dab][Dab]T; lactam 4-C),,,,,,,,,,2,4,2,0.25,1,4,0.5,1,0.5
CC[C@@H]1NC(=O)[C@@H](CC(C)C)NC(=O)[C@H](CCN)NC(=O)[C@@H](NC(=O)[C@H](CN)NC(=O)[C@@H](NC(=O)[C@H](CCN)NC(=O)Cc2ccccc2Cl)[C@@H](C)O)CCNC(=O)[C@H]([C@@H](C)O)NC(=O)[C@H](CCN)NC(=O)[C@H](CCN)NC1=O [Compound 84] (X39-[Dab]T[Dap][Dab][Dab][dL][Abu][Dab][Dab]T; lactam 4-C),,,,,,,,,,0.5,2,2,<0.125,0.25,0.5,2,8,2
